Some test systems named below: NCI-H23; SN12C; RXF 393; SNB-75; K562; OVCAR-5; OVCAR-4; CAKI-1; UACC-62; HL-60; ACHN; HT-29; MDA-N; SR; A498; UACC-257; SW-620; OVCAR-8; HCC 2998.
What all share (experiment): DTP human tumour cell line panel, 48 h

Each structure is given as a SMILES string.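 1) Cells in 96-well plates. 2) Compound, 48 h, 5 concentrations. 3) Linear interpolation between surrounding doses. 4) Unreached endpoint = highest concentration. GI50 = concentration required for 50% inhibition of growth.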 Activity calls are given as the source filed them. No stated cut-off is given here; in the data, active = GI50 up to about 1.1 µM and inactive = higher.

The GI50 is the concentration at which growth is held to half of that of the control. In the case of `NS(=O)(=O)c1cc(Br)c(/N=N\c2ccc(O)c3ncccc23)c(Br)c1`, the GI50 was 17.9 µM (inactive) in the assay with NCI-H23; 22.3 µM (inactive) with SN12C; 46.5 µM (inactive) in the assay with RXF 393; 21.7 µM (inactive) with SNB-75; 20 µM (inactive) with K562; 71.6 µM (inactive) in the assay on OVCAR-5. The GI50 was 43.6 µM (inactive) in the assay with OVCAR-4; 37.9 µM (inactive) in the assay on CAKI-1; 21.8 µM (inactive) in the assay on UACC-62; 6.04 µM (inactive) in the assay with HL-60; 4.34 µM (inactive) with ACHN; > 100 µM (inactive) with HT-29. In addition, the GI50 in the assay on MDA-N is 14.6 µM (inactive); with SR, 9.46 µM (inactive); in the assay on A498, 18.6 µM (inactive); in the assay with UACC-257 it was 19.6 µM (inactive); in the assay with SW-620 it was 34.8 µM (inactive); with OVCAR-8, 35.2 µM (inactive).

In the case of `OC(Cc1ccccc1)(Cc1ccccc1)c1ccccc1`, the GI50 is 18.8 µM (inactive) with NCI-H23; 17 µM (inactive) with SN12C; 15.3 µM (inactive) with RXF 393; 26.8 µM (inactive) in the assay with K562; 17.2 µM (inactive) in the assay on OVCAR-5; 16.9 µM (inactive) with OVCAR-4. Moreover, the GI50 is 23.2 µM (inactive) with CAKI-1; 16.9 µM (inactive) in the assay with UACC-62; 22 µM (inactive) in the assay with HL-60; 18.4 µM (inactive) with ACHN; 15.9 µM (inactive) in the assay on HT-29; 15.2 µM (inactive) with MDA-N. Also, the GI50 is 25.1 µM (inactive) in the assay with SR; 19.9 µM (inactive) in the assay with A498; 18.5 µM (inactive) in the assay with UACC-257; 22.2 µM (inactive) with SW-620; 19 µM (inactive) in the assay with OVCAR-8.

In the case of `O=C(O)CNCP(=O)(O)O` [GLYPHOSATE], the GI50 in the assay with NCI-H23, in the assay on SN12C, with RXF 393, in the assay with SNB-75, in the assay on K562 and in the assay on OVCAR-5 was > 100 µM (inactive) throughout. For the same compound, the GI50 in the assay on OVCAR-4, in the assay on CAKI-1, in the assay on UACC-62, with HL-60, in the assay on ACHN and in the assay with HT-29 was > 100 µM (inactive) each time. Besides, the GI50 in the assay with MDA-N, in the assay on SR, in the assay with A498, with UACC-257, in the assay with SW-620 and in the assay on OVCAR-8 was > 100 µM (inactive) throughout.

For `O=C1c2ccccc2-c2nc3ccc(O)cc3n21`, the GI50 in the assay with NCI-H23 was > 100 µM (inactive); in the assay with SN12C, > 100 µM (inactive); in the assay with RXF 393 it was > 100 µM (inactive); in the assay on SNB-75, 34.1 µM (inactive); in the assay on K562 it was > 100 µM (inactive); in the assay with HCC 2998, > 100 µM (inactive). The GI50 in the assay with OVCAR-5, in the assay with OVCAR-4, in the assay on CAKI-1, in the assay with UACC-62, with HL-60 and in the assay on ACHN was > 100 µM (inactive) throughout. Also, the GI50 in the assay with HT-29, in the assay with MDA-N, with SR, with UACC-257, in the assay on SW-620 and in the assay on OVCAR-8 was > 100 µM (inactive) each time.

Take `COc1ccc2c(c1)C1OCCNC1CC2` (stereo not drawn): the GI50 in the assay on NCI-H23, in the assay on SN12C, in the assay on RXF 393, in the assay with SNB-75, with K562 and in the assay with OVCAR-5 was > 100 µM (inactive) each time. In addition, the GI50 in the assay on CAKI-1, in the assay on UACC-62, in the assay with HL-60, with ACHN, in the assay on HT-29 and with MDA-N was > 100 µM (inactive) each time. Moreover, the GI50 was > 100 µM (inactive) in the assay on SR; 40.6 µM (inactive) with A498; > 100 µM (inactive) with UACC-257; > 100 µM (inactive) in the assay on SW-620; > 100 µM (inactive) in the assay with OVCAR-8.

Take `C[n+]1cn(-c2nc3ccccc3nc2[N-]S(=O)(=O)c2ccccc2)c2ccccc21`: the GI50 is > 100 µM (inactive) in the assay with NCI-H23; > 100 µM (inactive) with SN12C; 62.2 µM (inactive) in the assay with RXF 393; > 100 µM (inactive) in the assay with SNB-75; > 100 µM (inactive) in the assay with K562; > 100 µM (inactive) with HCC 2998. Also, the GI50 with OVCAR-5, in the assay on OVCAR-4, in the assay with CAKI-1, in the assay with UACC-62, in the assay with HL-60 and with ACHN was > 100 µM (inactive) throughout. Besides, the GI50 in the assay with HT-29, with MDA-N, in the assay on SR, with UACC-257, in the assay with SW-620 and in the assay on OVCAR-8 was > 100 µM (inactive) throughout.

`N#Cc1cnc(-n2[nH]c3c(c2=O)CCCC3)[nH]c1=O`: the GI50 in the assay with NCI-H23 was 54.3 µM (inactive); with SN12C, 44.2 µM (inactive); in the assay with RXF 393, > 100 µM (inactive); with SNB-75 it was 0.264 µM (active); in the assay on K562, 69.8 µM (inactive); in the assay on OVCAR-5, 74.6 µM (inactive). Also, the GI50 with OVCAR-4 was 83.9 µM (inactive); in the assay on CAKI-1, 39.2 µM (inactive); with UACC-62, 38.6 µM (inactive); in the assay on HL-60, 34.8 µM (inactive); in the assay on ACHN, 47.2 µM (inactive); in the assay on HT-29 it was 41.2 µM (inactive). Besides, the GI50 in the assay on MDA-N was > 100 µM (inactive); with SR, 23.8 µM (inactive); with A498, 59 µM (inactive); with UACC-257 it was 55 µM (inactive); in the assay with SW-620 it was 50 µM (inactive).

Turning to `O=C(O)/C=C/C(=O)N1Cc2cc3ccccc3nc2C1`, the GI50 in the assay on NCI-H23, with SN12C, in the assay with RXF 393, with SNB-75, in the assay on K562 and in the assay on HCC 2998 was > 100 µM (inactive) in each case. Besides, the GI50 with OVCAR-5, with CAKI-1, in the assay on UACC-62, in the assay with HL-60, with ACHN and with HT-29 was > 100 µM (inactive) each time. Also, the GI50 with MDA-N, in the assay with SR, with UACC-257, with SW-620 and with OVCAR-8 was > 100 µM (inactive) each time.

As for `CC(=O)N1C(OC(C)C)CC(C)N1c1ccccc1` (stereo not drawn), the GI50 in the assay on NCI-H23, with SN12C, in the assay with RXF 393, in the assay on SNB-75, in the assay on K562 and in the assay with HCC 2998 was > 10 µM (inactive) in each case. Also, the GI50 with OVCAR-5, in the assay with OVCAR-4, in the assay with CAKI-1, in the assay with HL-60, with ACHN and in the assay on HT-29 was > 10 µM (inactive) each time. In addition, the GI50 in the assay on MDA-N, with SR, with UACC-257, in the assay on SW-620 and in the assay on OVCAR-8 was > 10 µM (inactive) in each case.

As to `CC1(c2nc3cc(Cl)c(Cl)cc3[nH]2)CCC(CO)C(C)(C)O1` (stereo not drawn), the GI50 is 25.6 µM (inactive) with NCI-H23; 32 µM (inactive) in the assay with SN12C; 47.4 µM (inactive) with RXF 393; 14.8 µM (inactive) in the assay on SNB-75; 36.7 µM (inactive) with K562; 32.2 µM (inactive) in the assay on HCC 2998. The GI50 with OVCAR-5 was 82.2 µM (inactive); in the assay on OVCAR-4 it was 25.1 µM (inactive); with CAKI-1, 29.3 µM (inactive); in the assay with UACC-62 it was 17.6 µM (inactive); in the assay with HL-60 it was 15 µM (inactive); in the assay on ACHN, 30.3 µM (inactive). For the same compound, the GI50 in the assay on HT-29 is 16.4 µM (inactive); with MDA-N, 29 µM (inactive); with SR, 19.9 µM (inactive); in the assay with UACC-257, 29.6 µM (inactive); with SW-620 it was 30.9 µM (inactive); in the assay with OVCAR-8, 19.5 µM (inactive).

As to `O=C(Cc1ccccc1)c1ccc2[nH]c(=O)oc2c1`, the GI50 in the assay on NCI-H23 is 51.3 µM (inactive); in the assay with SN12C, > 100 µM (inactive); in the assay with RXF 393 it was 39.6 µM (inactive); in the assay with SNB-75, 0.126 µM (active); in the assay on K562, 31 µM (inactive); in the assay on OVCAR-5 it was > 100 µM (inactive). Moreover, the GI50 with CAKI-1 was 59.6 µM (inactive); with UACC-62, 58.5 µM (inactive); in the assay on HL-60, 50.4 µM (inactive); with ACHN, 41.4 µM (inactive); in the assay with HT-29, 37.5 µM (inactive); in the assay with MDA-N, 39.3 µM (inactive). Also, the GI50 was 38.3 µM (inactive) with SR; > 100 µM (inactive) in the assay with A498; 43.2 µM (inactive) in the assay with UACC-257; 52.1 µM (inactive) with SW-620; 23.2 µM (inactive) in the assay on OVCAR-8.

On to `OCC(O)C(O)C(C=NNc1ncnc2ccc(Br)cc12)=NNc1ncnc2ccc(Br)cc12` (stereo not drawn), for which the GI50 in the assay on SN12C is 2.39 µM (inactive); in the assay on RXF 393, 2.14 µM (inactive); in the assay on SNB-75, 2.46 µM (inactive); in the assay on K562, 2.25 µM (inactive); with OVCAR-5, 3.58 µM (inactive); in the assay with OVCAR-4, 0.383 µM (active). Further, the GI50 in the assay with CAKI-1 was 0.83 µM (active); in the assay with HL-60 it was 0.282 µM (active); in the assay with ACHN it was 0.729 µM (active); in the assay on HT-29 it was 0.556 µM (active); with MDA-N, 3.63 µM (inactive); in the assay with SR, 0.492 µM (active). Moreover, the GI50 was 4.23 µM (inactive) with A498, 3.1 µM (inactive) in the assay with UACC-257, 0.809 µM (active) in the assay with SW-620 and 0.533 µM (active) with OVCAR-8.
